# Test results as given in patent US8822449B2, “Substituted aminoindanes and analogs thereof, and the pharmaceutical use thereof” (Sanofi, priority 2008, dated 2014).
# Target: T1, sodium-proton exchanger of subtype 3 (NHE3) (Homo sapiens, UniProt P48764)
# T1 construct: expressed in transfected cells
# T1 sequence (P48764 26-834): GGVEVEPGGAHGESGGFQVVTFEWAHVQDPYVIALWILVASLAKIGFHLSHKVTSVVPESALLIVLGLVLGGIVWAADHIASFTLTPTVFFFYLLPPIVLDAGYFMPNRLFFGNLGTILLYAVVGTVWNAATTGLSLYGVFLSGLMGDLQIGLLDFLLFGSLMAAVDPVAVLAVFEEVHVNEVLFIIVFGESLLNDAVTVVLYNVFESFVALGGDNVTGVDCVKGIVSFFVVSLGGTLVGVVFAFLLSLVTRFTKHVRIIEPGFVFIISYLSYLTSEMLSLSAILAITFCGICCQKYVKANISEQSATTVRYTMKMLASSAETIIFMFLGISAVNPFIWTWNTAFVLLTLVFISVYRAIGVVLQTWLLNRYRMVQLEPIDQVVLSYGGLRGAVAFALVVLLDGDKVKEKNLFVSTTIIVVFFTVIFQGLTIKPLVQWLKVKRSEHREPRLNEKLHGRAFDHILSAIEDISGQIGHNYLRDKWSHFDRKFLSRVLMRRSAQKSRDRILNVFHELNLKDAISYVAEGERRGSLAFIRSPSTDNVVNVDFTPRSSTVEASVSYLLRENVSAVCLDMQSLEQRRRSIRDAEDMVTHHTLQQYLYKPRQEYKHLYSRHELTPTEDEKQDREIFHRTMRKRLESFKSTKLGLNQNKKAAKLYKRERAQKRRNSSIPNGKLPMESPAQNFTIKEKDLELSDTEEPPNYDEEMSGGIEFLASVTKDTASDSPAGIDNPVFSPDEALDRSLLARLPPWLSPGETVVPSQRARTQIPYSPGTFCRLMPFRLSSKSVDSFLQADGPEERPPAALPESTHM
# Experiment: Recovery of intracellular pH (pHi) after acidification in LAP1 cells stably expressing NHE3 (BCECF fluorescence, FLIPR)
# Format: cell-based
# Details: Activity range (inhibitory effect on NHE3), LAP1 cells stably expressing NHE3; pH recovery after acidification; range 1 is % inhibition at 10 μM
row,SMILES,IC50 [nM]
1,"CN(C)S(=O)(=O)c1ccc(O[C@H]2c3ccccc3C[C@@H]2N2CCCC2)c(Cl)c1 (racemic) [Example 447, 3-chloro-N,N-dimethyl-4-(rac-trans-(1,2)-2-pyrrolidin-1-ylindan-1-yloxy)benzenesulfonamide]",< 1000

# Same assay, conditions: LAP1 cells stably expressing NHE3; pH recovery after acidification; range 1 is % inhibition at 10 μM; read-out: Activity range (inhibitory effect on NHE3)
SMILES,IC50 [nM],inhibition at 10 µM [%]
"Cc1nnc(C)n1-c1ccc(O[C@H]2c3cc(Cl)cc(F)c3C[C@@H]2NC2CCCC2)c(F)c1 [Example 749, {trans-(1S,2S)-6-Chloro-1-[4-(3,5-dimethyl-[1,2,4]triazol-4-yl)-2-fluoro-phenoxy]-4-fluoro-indan-2-yl}-cyclopentyl-amine]",1000 to 10000,–
"CCc1nc(C)cn1-c1ccc(O[C@H]2c3cc(Cl)cc(F)c3C[C@@H]2N2CC[C@@H](O)C2)cc1 [Example 719, (R)-1-{trans-(1S,2S)-6-Chloro-1-[4-(2-ethyl-4-methyl-imidazol-1-yl)-phenoxy]-4-fluoro-indan-2-yl}-pyrrolidin-3-ol]",1000 to 10000,–
"c1ccc2c(c1)CC[C@H](N1CCOCC1)[C@H]2Oc1cccc2ncccc12 (racemic) [Example 570, 5-(rac-trans-(1,2)-2-morpholin-4-yl-1,2,3,4-tetrahydronaphthalen-1-yloxy)quinoline]",–,20 to 50
"CS(=O)(=O)c1ccc(O[C@H]2c3cc(Cl)cc(Cl)c3C[C@@H]2N2CC[C@H](O)C2)cc1 [Example 198, (S)-1-[trans-(1S,2S)-4,6-dichloro-1-(4-methanesulfonylphenoxy)indan-2-yl]pyrrolidin-3-ol]",< 1000,–
"CS(=O)(=O)c1ccc(O[C@H]2c3cc(Cl)cc(Cl)c3C[C@@H]2N2CC[C@@H](C#N)C2)cc1 [Example 105, (R)-1-[trans-(1S,2S)-4,6-dichloro-1-(4-methanesulfonylphenoxy)indan-2-yl]pyrrolidine-3-carbonitrile]",1000 to 10000,–
"N[C@@H]1CCCN([C@H]2CCc3ccccc3[C@@H]2Oc2ccc(Cl)cc2-c2cc[nH]n2)C1 (racemic) [Example 119, (R)-1-{rac-trans-(1,2)-1-[4-chloro-2-(1H-pyrazol-3-yl)phenoxy]-1,2,3,4-tetrahydronaphthalen-2-yl}piperidin-3-ylamine]",< 1000,–
"O=C1CCC(=O)N1c1ccc(O[C@H]2c3cc(Cl)cc(Cl)c3C[C@@H]2N2CC[C@@H](O)C2)cc1 [Example 334, 1-{4-[trans-(1S,2S)-4,6-dichloro-2-((R)-3-hydroxypyrrolidin-1-yl)indan-1-yloxy]phenyl}pyrrolidine-2,5-dione]",< 1000,–
"Cc1ccc(F)c(O[C@H]2c3ccccc3CC[C@@H]2N2CCC[C@@H](N)C2)c1 (racemic) [Example 43, (R)-1-[rac-trans-(1,2)-1-(2-fluoro-5-methylphenoxy)-1,2,3,4-tetrahydronaphthalen-2-yl]piperidin-3-ylamine]",–,20 to 50
"CCCC1(N)CCCN([C@H]2Cc3c(Cl)cc(Cl)cc3[C@@H]2Oc2cccc(NC(C)=O)c2)C1 (mixture of isomers) [Example 693, N-{3-[trans-(1S,2S)-2-(3-amino-3-propylpiperidin-1-yl)-4,6-dichloroindan-1-yloxy]phenyl}acetamide]",< 1000,–
"CS(=O)(=O)c1ccc(O[C@H]2c3cc(Cl)cc(Cl)c3C[C@@H]2N2CC[C@@H](NCCF)C2)cc1 [Example 226, {(R)-1-[trans-(1S,2S)-4,6-dichloro-1-(4-methanesulfonylphenoxy)indan-2-yl]pyrrolidin-3-yl}-(2-fluoroethyl)amine]",< 1000,–
"NCC1CCN([C@@H]2Cc3ccccc3[C@H]2Oc2ccc(Br)cc2-c2cc[nH]n2)CC1 (racemic) [Example 599, C-(1-{rac-trans-(1,2)-1-[4-bromo-2-(1H-pyrazol-3-yl)phenoxy]indan-2-yl}piperidin-4-yl)methylamine]",1000 to 10000,–
"COc1cccc(F)c1O[C@H]1c2ccccc2CC[C@@H]1N1CCC[C@@H](N)C1 (racemic) [Example 44, (R)-1-[rac-trans-(1,2)-1-(2-fluoro-6-methoxyphenoxy)-1,2,3,4-tetrahydronaphthalen-2-yl]piperidin-3-ylamine]",–,20 to 50
"CC(=O)Nc1cccc(OC2c3ccccc3CC2N2CC[C@@H](O)C2)c1 (mixture of isomers) [Example 681, N-{3-[rac-trans-(1,2)-2-((R)-3-hydroxypyrrolidin-1-yl)indan-1-yloxy]phenyl}acetamide]",1000 to 10000,–
"COc1ccc(C)cc1O[C@@H]1c2ccccc2C[C@H]1N1CCC(CN)C1 (mixture of isomers) [Example 607, C-{1-[rac-trans-(1,2)-1-(2-methoxy-5-methylphenoxy)indan-2-yl]pyrrolidin-3-yl}methylamine]",1000 to 10000,–
"COc1cc(Cl)cc(O[C@H]2c3ccccc3CC[C@@H]2N2CCC[C@@H](N)C2)c1 (racemic) [Example 54, (R)-1-[rac-trans-(1,2)-1-(3-chloro-5-methoxyphenoxy)-1,2,3,4-tetrahydronaphthalen-2-yl]piperidin-3-ylamine]",–,20 to 50
"COc1ccc(C)cc1O[C@H]1c2ccccc2CC[C@@H]1N1CCC[C@@H](N)C1 (racemic) [Example 46, (R)-1-[rac-trans-(1,2)-1-(2-methoxy-5-methylphenoxy)-1,2,3,4-tetrahydronaphthalen-2-yl]piperidin-3-ylamine]",–,20 to 50
"CS(=O)(=O)c1ccc(O[C@@H]2c3cc(F)cc(Cl)c3C[C@H]2N2CCC[C@@H](N)C2)cc1 (racemic) [Example 91, (R)-1-[rac-trans-(1,2)-4-chloro-6-fluoro-1-(4-methanesulfonylphenoxy)indan-2-yl]piperidin-3-ylamine]",< 1000,–
"CS(=O)(=O)c1nccn1-c1ccc(O[C@H]2c3cc(Cl)cc(Cl)c3C[C@@H]2N2CC[C@@H](O)C2)c(F)c1 [Example 739, (R)-1-{trans-(1S,2S)-4,6-Dichloro-1-[2-fluoro-4-(2-methanesulfonyl-imidazol-1-yl)-phenoxy]-indan-2-yl}-pyrrolidin-3-ol]",< 1000,–
"CC(=O)Nc1cccc(O[C@H]2c3cc(Cl)cc(Cl)c3C[C@@H]2N2CCOCC2)c1 (racemic) [Example 646, N-[3-(rac-trans-(1,2)-4,6-dichloro-2-morpholin-4-ylindan-1-yloxy)phenyl]acetamide]",–,20 to 50
"CS(=O)(=O)c1ccc(O[C@H]2c3ccccc3C[C@@H]2N2CCC[C@@H](N)C2)cc1 [Example 95, (R)-1-[trans-(1S,2S)-1-(4-methanesulfonylphenoxy)indan-2-yl]piperidin-3-ylamine]",< 1000,–
"Cn1ccn(-c2cccc(O[C@H]3c4ccccc4C[C@@H]3N3CCCC3)c2)c1=O (racemic) [Example 352, 1-methyl-3-[3-(rac-trans-(1,2)-2-pyrrolidin-1-ylindan-1-yloxy)phenyl]-1,3-dihydroimidazol-2-one]",< 1000,–
"Cc1ccc(O[C@H]2c3ccccc3CC[C@@H]2N2CCC[C@@H](N)C2)c(Cl)c1 (racemic) [Example 38, (R)-1-[rac-trans-(1,2)-1-(2-chloro-4-methylphenoxy)-1,2,3,4-tetrahydronaphthalen-2-yl]piperidin-3-ylamine]",–,20 to 50
"NS(=O)(=O)c1ccc(O[C@H]2c3ccccc3C[C@@H]2CN2CCCC2)cc1Cl (racemic) [Example 389, 2-chloro-4-(2-pyrrolidin-1-ylmethylindan-1-yloxy)benzenesulfonamide]",1000 to 10000,–
"Cc1cc(O[C@H]2c3cc(F)cc(Cl)c3C[C@@H]2N2CCNCC2)ccc1S(C)(=O)=O (racemic) [Example 281, 1-[rac-trans-(1,2)-4-chloro-6-fluoro-1-(4-methanesulfonyl-3-methylphenoxy)indan-2-yl]piperazine]",< 1000,–
